Assay results published in patent US6875737B1, “Multivalent compounds for crosslinking receptors and uses thereof” (Trustees of Tufts College, priority 1996, dated 2005).
Like-named read-outs stand apart in the source and are kept apart here. Marks after values point to notes of the source that are not given here. Blank lines part the entries; values can stand above or below the compound they belong to. Ends that are not written are not given here.

Assays:
[1] = test system: Dipeptidyl Peptidase IV (DP IV, CD26); assay: Inhibition of DP IV (CD26) proteinase activity, Ki; assay type: biochemical; settings: soluble DP IV (CD26)
From the text: Assays to measure CD26 (DP IV) activity will be performed on both the homobivalent compounds, e.g., Lys-boroPro coupled to another, and the heterobivalent compounds, e.g., Lys-boroPro coupled to a peptide specific for a T cell surface receptor, e.g., moth cytochrome C peptide. Methods for quantitatively measuring the interaction of small peptidomimetic inhibitors with CD26 or DP IV, as well as for the interaction of CD26 with larger ligands, e.g., the HIV Tat protein, have been developed (W. G. Gutheil and W. W. Bachovchin. Separation of L-Pro-DL-boroPro into Its Component Diastereomers and Kinetic analysis of Their Inhibition of Dipeptidyl Peptidase IV. A New Method for the Analysis of Slow, Tight-Binding Inhibition, Biochemistry 32, 8723-8731 (1993); Gutheil, W. G., and W., B. W. Kinlsq, A Matlab Program for Fitting Kinetics Data with Numerically Integrated Rate Equations and Its Application to the Analysis of Slow, Tight Binding Data, Analytical Biochemistry 223, 13-20 (1994); Gutheil, W. G., Subramanyam, M., Flentke, G. R., Sanford, D. G., Munoz, E., Huber, B. T., and Bachovchin, W. W. HIV-1 Tat Binds to DP IV (CD26): A possible Mechanism for Tat's Immunosuppressive Activity, Proc. Natl. Acad. Sci. U.S.A. 91, 6594-6598 (1994)). These methods use the chromatogenic substrate Ala-Pro-p-nitroanilide (APpNA) and fluorescent substrate Ala-Pro-7-amino-4-trifluoromethyl coumarin (AP-AFC). APpNA and AP-AFC are commercially available (e.g., Enzyme Systems Products, Dublin, Calif.).

[2] = mice; cited from earlier work
H9 cells [3] = assay: IL-2 production by H9 cells stimulated with anti-CD3 mAb OKT3 (HT2 bioassay); assay type: cell-based
Description: To determine the effect KbP2-Adipate had on anti-CD3 mAb stimulation of H9 cells, e.g., stimulation of suppressing IL-2 production, the following protocol was used.
In quadruplicate wells, H9 cells were preincubated with KbP2-Adipate for 0, 30, 60, or 150 min. After the preincubation, the cells were seeded into a 96 well flatbottom plate pre-coated with anti-CD3 monoclonal antibody OKT3 at 1,000, 5,000, 10,000, 20,000, 50,000, or 100,000 times dilution of stock. After 24 hr, the cells were lysed by freezing at […]. IL-2 concentration in the H9 cells lysates was bioassayed using the IL-2 dependent cell line HT2, Watson, J. D. “Continuous proliferation of murine antigen specific helper T lymphocytes in culture,” 1979, Journal of Experimental Medicine, 150:1510. HT2 proliferation was measured by counting 3H-thymidine incorporation.
Similar experiments were carried out with (KbP)2-EGS and the co-stimulatory antibody OKT3; the results of these experiments are shown in FIG. 12.

H9 cells [4] = assay: H9 cell viability, trypan blue hemocytometry counts and flow cytometry; assay type: cell-based
From the text: Possible explanations for the observed inhibitory activity shown in FIG. 3 were eliminated with proper negative controls.

[5] = Conformational equilibrium of cyclic and open chain forms; assay type: physicochemical; settings: at equilibrium at pH 7.0
From the text: G. Gutheil and W. W. Bachovchin, separation of L-Pro-DL-boroPro into Its Component Diastereomers and Kinetic Analysis of Their Inhibition of Dipeptidyl Peptidase IV. A New Method for the Analysis of Slow, Tight-Binding Inhibition, Biochemistry 32, 8723-8731 (1993)).

[6] = test system: Dipeptidyl Peptidase IV (DP IV, CD26); settings: cited from earlier work
[7] = test system: T cell clone 2E5.G10.G5.E5; assay: T cell clone proliferation, thymidine uptake; assay type: cell-based
Description: (§1) The proliferative effect of PLP-S-KbP on several different T cell clones that recognize PLP 139-151 were tested. T cell clones that recognize an irrelevant epitope, were used as negating controls. The protocol used is described (Kuchroo, V. K., et al., B7-1 and B7-2 Costimulatory Molecules Activate Differentially the Th1/Th2 Developmental Pathways: Application to Autoimmune Disease Therapy, Cell 80, 707-718 (1995)) and is incorporated herein by reference. Proliferation was measured by thymidine uptake. Table 1 below compares the effect PLP-S-KbP, antigenic PLP 139-151 peptide and non-antigenic PLP 103-116 peptide has on proliferation in different five PLP 139-151 specific T cell clones.

[8] = test system: T cell clone 4E3.B11.D9.H10.H6; assay: T cell clone proliferation, thymidine uptake; assay type: cell-based
Description: as §1

T cell clone 7A5.F10.G11 = assay: T cell clone proliferation, thymidine uptake; assay type: cell-based
Description: as §1

[9] = test system: T cell clone 5B8.G8.E6.H12; assay: T cell clone proliferation, thymidine uptake; assay type: cell-based
Description: as §1

[10] = test system: T cell clone SPL.C1.H2.F2; assay: T cell clone proliferation, thymidine uptake; assay type: cell-based
Description: as §1

DP IV inhibition [1]: non inhibitory
Compound: NCCCC[C@H](N)C(=O)N1CCC[C@H]1B(O)O (single isomer, unassigned) [L,D isomer, Lys-boroPro]

DP IV inhibition [1]: inhibitory
Compound: NCCCC[C@H](N)C(=O)N1CCC[C@H]1B(O)O (single isomer, unassigned) [L,L isomer, Lys-boroPro]

Compound: C[C@H](N)C(=O)N1CCC[C@H]1B(O)O [Ala-boroPro]
immune response in vivo (antibody production after antigen challenge) [2]: inhibited an immune response in vivo in mice

Compound: N[C@@H](CCCCNC(=O)CCCCC(=O)NCCCC[C@H](N)C(=O)N1CCC[C@H]1B(O)O)C(=O)N1CCC[C@H]1B(O)O [KbP2-Adipate, di(L-Lysine-L-boroProline)adipate]
shape of dose response on IL-2 production (H9 cells [3]): decreases with increasing KbP2-Adipate concentrations | suppression of IL-2 production (H9 cells [3]; 4.0×10^−10 M, anti-CD3 mAb stimulation of H9 cells (FIG. 4)): 98% | concentration range where stimulatory effect begins (H9 cells [3]; FIG. 5): ~1 pM | concentration range where stimulatory effect saturates (H9 cells [3]; FIG. 5): ~10 mM | augmentation of IL-2 production (co-stimulatory activity) (H9 cells [3]; higher concentrations (FIG. 5), depends on concentration and preincubation time): up to 4 fold | effect on IL-2 production (H9 cells [3]; higher concentrations, e.g. 10^−6 M (FIG. 5)): potent stimulator | effect on IL-2 production (H9 cells [3]; lower concentrations, e.g. 10^−10 M (FIG. 4)): potent inhibitor | cell viability (H9 cells [4]): did not affect cell viability

DP IV inhibition [1]: potent inhibitors
Compound: CC(N)C(=O)N1CCCC1B(O)O [L-Ala-D,L-boroPro]

DP IV inhibition [1]: potent inhibitors
Compound: O=C(C1CCCN1)N1CCCC1B(O)O [L-Pro-D,L-boroPro]

fraction existing as open chain, inhibitory species [5]: less than 1%
Compound: O=C(C1CCCN1)N1CCCC1B(O)O (stereo not shown) [Pro-boroPro]
immune response in vivo (antibody production after antigen challenge) [2]: inhibited an immune response in vivo in mice

Compound: CC(C)C(N)C(=O)N1CCCC1B(O)O (stereo not shown) [Val-boroPro]
fraction existing as open chain, inhibitory species [5]: less than 0.1%

Compound: OB(O)C1CCCN1 (stereo not shown) [boroPro]
DP IV inhibition [6]: not an effective inhibitor

Compound: HSLGKWLGHPDKF [PLP 139-151, peptide corresponding to residues 139-151 of myelin proteolipid protein]
proliferation, thymidine uptake ([7]; dose 0.1 μM): 101 ^3H counts | proliferation, thymidine uptake ([7]; dose 1 μM): 288 ^3H counts | proliferation, thymidine uptake ([7]; dose 10 μM): 70 ^3H counts | proliferation, thymidine uptake ([7]; dose 100 μM): 1,506 ^3H counts | proliferation, thymidine uptake ([8]; dose 0.1 μM): 318 ^3H counts | proliferation, thymidine uptake ([8]; dose 1 μM): 125 ^3H counts | proliferation, thymidine uptake ([8]; dose 10 μM): 534 ^3H counts | proliferation, thymidine uptake ([8]; dose 100 μM): 1,932 ^3H counts | proliferation, thymidine uptake (T cell clone 7A5.F10.G11; dose 0.1 μM): 117 ^3H counts | proliferation, thymidine uptake (T cell clone 7A5.F10.G11; dose 1 μM): 222 ^3H counts | proliferation, thymidine uptake (T cell clone 7A5.F10.G11; dose 10 μM): 406 ^3H counts | proliferation, thymidine uptake (T cell clone 7A5.F10.G11; dose 100 μM): 2,324 ^3H counts | proliferation, thymidine uptake ([9]; dose 0.1 μM): 106 ^3H counts | proliferation, thymidine uptake ([9]; dose 1 μM): 349 ^3H counts | proliferation, thymidine uptake ([9]; dose 10 μM): 9,176 ^3H counts | proliferation, thymidine uptake ([9]; dose 100 μM): 41,073 ^3H counts | proliferation, thymidine uptake ([10]; dose 0.1 μM): 423 ^3H counts | proliferation, thymidine uptake ([10]; dose 1 μM): 107 ^3H counts | proliferation, thymidine uptake ([10]; dose 10 μM): 400 ^3H counts | proliferation, thymidine uptake ([10]; dose 100 μM): 809 ^3H counts

Compound: HSLGKWLGHPDKFAAAAAA-εKbP (not fully specified (C-terminus); printed as HSLGKWLGHPDKFAAAAAA-εKbP; also: C-terminus joined to epsilon-amino of Lys, which carries boroPro) [PLP-S-KbP, Lys-boroPro linked by its ε-amino group via six alanines to the C terminus of PLP 139-151]
proliferation, thymidine uptake ([7]; dose 0.1 μM): 175 ^3H counts | proliferation, thymidine uptake ([7]; dose 1 μM): 7,738 ^3H counts | proliferation, thymidine uptake ([7]; dose 10 μM): 26,410 ^3H counts | proliferation, thymidine uptake ([7]; dose 100 μM): 36,686 ^3H counts | proliferation, thymidine uptake ([8]; dose 0.1 μM): 3,688 ^3H counts | proliferation, thymidine uptake ([8]; dose 1 μM): 8,580 ^3H counts | proliferation, thymidine uptake ([8]; dose 10 μM): 15,753 ^3H counts | proliferation, thymidine uptake ([8]; dose 100 μM): 17,608 ^3H counts | proliferation, thymidine uptake (T cell clone 7A5.F10.G11; dose 0.1 μM): 187 ^3H counts | proliferation, thymidine uptake (T cell clone 7A5.F10.G11; dose 1 μM): 8,202 ^3H counts | proliferation, thymidine uptake (T cell clone 7A5.F10.G11; dose 10 μM): 35,521 ^3H counts | proliferation, thymidine uptake (T cell clone 7A5.F10.G11; dose 100 μM): 43,999 ^3H counts | proliferation, thymidine uptake ([9]; dose 1 μM): 22,022 ^3H counts | proliferation, thymidine uptake ([9]; dose 10 μM): 53,628 ^3H counts | proliferation, thymidine uptake ([9]; dose 100 μM): 34,716* ^3H counts | proliferation, thymidine uptake ([10]; dose 0.1 μM): 681 ^3H counts | proliferation, thymidine uptake ([10]; dose 1 μM): 2,527 ^3H counts | proliferation, thymidine uptake ([10]; dose 10 μM): 17,516 ^3H counts | proliferation, thymidine uptake ([10]; dose 100 μM): 31,635 ^3H counts

Compound: PLP103-116: non-antigenic PLP 103-116 peptide (DYKTTICGKGLSAT)
proliferation, thymidine uptake ([7]; dose 0.1 μM): 307 ^3H counts | proliferation, thymidine uptake ([7]; dose 1 μM): 434 ^3H counts | proliferation, thymidine uptake ([7]; dose 10 μM): 60 ^3H counts | proliferation, thymidine uptake ([7]; dose 100 μM): 107 ^3H counts | proliferation, thymidine uptake ([8]; dose 0.1 μM): 178 ^3H counts | proliferation, thymidine uptake ([8]; dose 1 μM): 559 ^3H counts | proliferation, thymidine uptake ([8]; dose 10 μM): 224 ^3H counts | proliferation, thymidine uptake ([8]; dose 100 μM): 274 ^3H counts | proliferation, thymidine uptake (T cell clone 7A5.F10.G11; dose 0.1 μM): 556 ^3H counts | proliferation, thymidine uptake (T cell clone 7A5.F10.G11; dose 1 μM): 314 ^3H counts | proliferation, thymidine uptake (T cell clone 7A5.F10.G11; dose 10 μM): 117 ^3H counts | proliferation, thymidine uptake (T cell clone 7A5.F10.G11; dose 100 μM): 124 ^3H counts | proliferation, thymidine uptake ([9]; dose 0.1 μM): 124 ^3H counts | proliferation, thymidine uptake ([9]; dose 1 μM): 226 ^3H counts | proliferation, thymidine uptake ([9]; dose 10 μM): 74 ^3H counts | proliferation, thymidine uptake ([9]; dose 100 μM): 143 ^3H counts | proliferation, thymidine uptake ([10]; dose 0.1 μM): 238 ^3H counts | proliferation, thymidine uptake ([10]; dose 1 μM): 123 ^3H counts | proliferation, thymidine uptake ([10]; dose 10 μM): 479 ^3H counts | proliferation, thymidine uptake ([10]; dose 100 μM): 150 ^3H counts
